This note sets out measurements from patent publication US9624214B2, “Amino-substituted imidazo[1,2-a]pyridinecarboxamides and their use” (BAYER PHARMA AKTIENGESELLSCHAFT, priority 2012, dated 2017).

The assay deals with T1, recombinant guanylate cyclase reporter cell line (Rattus norvegicus, UniProt P19686+P20595).
T1 construct: expressed in transfected cells
T1 sequence (P20595 1-619): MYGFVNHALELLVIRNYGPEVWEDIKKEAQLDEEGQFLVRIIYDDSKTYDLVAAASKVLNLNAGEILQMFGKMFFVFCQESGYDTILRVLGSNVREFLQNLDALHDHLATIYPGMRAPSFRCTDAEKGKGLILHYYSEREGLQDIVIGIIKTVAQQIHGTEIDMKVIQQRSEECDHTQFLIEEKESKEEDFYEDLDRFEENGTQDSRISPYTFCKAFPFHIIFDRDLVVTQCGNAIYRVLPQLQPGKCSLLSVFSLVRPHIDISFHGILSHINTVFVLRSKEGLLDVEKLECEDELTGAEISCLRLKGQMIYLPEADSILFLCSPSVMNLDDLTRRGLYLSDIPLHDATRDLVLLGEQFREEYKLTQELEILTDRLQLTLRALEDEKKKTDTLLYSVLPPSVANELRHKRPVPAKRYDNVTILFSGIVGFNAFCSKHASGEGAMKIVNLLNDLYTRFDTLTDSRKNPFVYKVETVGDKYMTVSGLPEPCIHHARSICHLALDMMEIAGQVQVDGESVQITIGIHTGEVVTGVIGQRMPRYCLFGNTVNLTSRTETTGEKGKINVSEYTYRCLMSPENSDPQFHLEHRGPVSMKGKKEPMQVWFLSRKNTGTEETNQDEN
T1 sequence (P19686 1-690): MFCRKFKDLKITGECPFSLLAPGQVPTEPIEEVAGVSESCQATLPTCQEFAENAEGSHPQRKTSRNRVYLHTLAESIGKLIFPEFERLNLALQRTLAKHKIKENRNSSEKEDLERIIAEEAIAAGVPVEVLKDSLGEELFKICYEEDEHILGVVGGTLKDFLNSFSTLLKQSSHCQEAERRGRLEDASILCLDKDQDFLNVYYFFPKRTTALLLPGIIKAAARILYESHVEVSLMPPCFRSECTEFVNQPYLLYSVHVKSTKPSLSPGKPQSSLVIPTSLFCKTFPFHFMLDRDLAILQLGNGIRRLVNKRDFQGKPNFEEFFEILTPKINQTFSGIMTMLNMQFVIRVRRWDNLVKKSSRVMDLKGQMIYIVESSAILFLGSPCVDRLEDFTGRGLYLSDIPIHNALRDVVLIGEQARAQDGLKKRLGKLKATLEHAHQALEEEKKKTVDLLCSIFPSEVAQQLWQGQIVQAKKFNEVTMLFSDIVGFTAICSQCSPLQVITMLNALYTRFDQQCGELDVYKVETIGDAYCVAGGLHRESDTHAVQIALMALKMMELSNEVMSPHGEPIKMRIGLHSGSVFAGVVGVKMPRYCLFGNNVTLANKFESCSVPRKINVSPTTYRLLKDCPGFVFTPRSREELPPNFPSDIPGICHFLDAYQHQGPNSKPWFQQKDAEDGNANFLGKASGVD
Description: B-2. Action on recombinant guanylate cyclase reporter cell line. The class given is cell-based. To be noted: MEC = minimal effective concentration; in some cases mean values from individual determinations. In outline: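 Reported value is the minimal effective concentration (MEC), in some cases a mean of single runs, taken from a recombinant rat guanylate cyclase reporter cell line.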

Structures are written as SMILES. Where a name gives a salt, the structure may show the parent alone.

For the compound `Cc1cc(OCc2c(F)cccc2F)c2nc(C)c(C(=O)N[C@@H]3CCCC[C@H]3N)n2c1` [Example 251, ent-N-[(1R,2R)-2-Aminocyclohexyl]-8-[(2,6-difluorobenzyl)oxy]-2,6-dimethylimidazo[1,2-a]-pyridine-3-carboxamide], the MEC was 3.00 µM.
The result for `CCC(N)(CC)CNC(=O)c1c(C)nc2c(OCc3c(F)cccc3F)cccn12` [Example 253, N-(2-Amino-2-ethylbutyl)-8-[(2,6-difluorobenzyl)oxy]-2-methylimidazo[1,2-a]pyridine-3-carboxamide] reads 0.10 µM.
The value for `Cc1cc(OCc2c(F)cccc2F)c2nc(C)c(C(=O)NCCNC(C)(C)C)n2c1` [Example 255, N-[2-(tert-Butylamino)ethyl]-8-[(2,6-difluorobenzyl)oxy]-2,6-dimethylimidazo[1,2-a]pyridine-3-carboxamide] was 0.30 µM.
The value for `CCCC(C)(N)CNC(=O)c1c(C)nc2c(OC(C)c3c(F)cccc3F)cc(C)cn12` (stereo not shown) [Example 257, N-(2-Amino-2-methylpentyl)-8-[1-(2,6-difluorophenyl)ethoxy]-2,6-dimethylimidazo[1,2-a]-pyridine-3-carboxamide] was 1.00 µM; that for `Cc1cc(OCc2c(F)ccc(F)c2F)c2nc(C)c(C(=O)NCC(C)(C)N)n2c1` [Example 276, N-(2-Amino-2-methylpropyl)-2,6-dimethyl-8-[(2,3,6-trifluorobenzyl)oxy]imidazo[1,2-a]pyridine-3-carboxamide] was 0.10 µM; that for `COC(=O)[C@@H](N)CCCCNC(=O)c1c(C)nc2c(OCc3c(F)cccc3F)cc(C)cn12` [Example 294, Methyl N^6-({8-[(2,6-difluorobenzyl)oxy]-2,6-dimethylimidazo[1,2-a]pyridin-3-yl}carbonyl)-L-lysinate] was 0.065 µM.
For `CCCC(C)(N)CNC(=O)c1c(C(F)(F)F)nc2c(OCc3c(F)cccc3F)cc(C)cn12` (stereo not drawn) [Example 305, ent-N-(2-amino-2-methylpentyl)-8-[(2,6-difluorobenzyl)oxy]-6-methyl-2-(trifluoromethyl)imidazo[1,2-a]pyridine-3-carboxamide], the MEC is 0.10 µM.
The value for `CCCC(C)(N)CNC(=O)c1c(C)nc2c(OCc3c(F)cccc3F)cc(Br)cn12` (stereo not drawn) [Example 306, ent-N-(2-amino-2-methylpentyl)-6-bromo-8-[(2,6-difluorobenzyl)oxy]-2-methylimidazo[1,2-a]pyridine-3-carboxamide] was 0.10 µM.
The result for `Cc1cc(OCc2c(F)cccc2F)c2nc(C)c(C(=O)NCC3(N)CCCCC3)n2c1` [Example 307, N-[(1-aminocyclohexyl)methyl]-8-[(2,6-difluorobenzyl)oxy]-2,6-dimethylimidazo[1,2-a]pyridine-3-carboxamide] reads 0.65 µM.
The result for `Cc1cc(OCc2c(F)cccc2F)c2nc(C)c(C(=O)N[C@H]3C[C@H]4CN(C)CCN4C3)n2c1` [Example 314, 8-[(2,6-Difluorobenzyl)oxy]-2,6-dimethyl-N-[(7S,8aS)-2-methyloctahydropyrrolo[1,2-a]pyrazin-7-yl]imidazo[1,2-a]pyridine-3-carboxamide] reads 0.30 µM.
Take `CCC(C)(CN)NC(=O)c1c(C)nc2c(OCc3c(F)ccc(F)c3F)cc(C)cn12` (stereo not drawn) [Example 315, ent-N-(1-amino-2-methylbutan-2-yl)-2,6-dimethyl-8-[(2,3,6-trifluorobenzyl)oxy]imidazo[1,2-a]pyridine-3-carboxamide]: the MEC is 0.30 µM.
The value for `CCCC(C)(N)CNC(=O)c1c(C)nc2c(OCc3c(F)cccc3F)cccn12` (stereo not drawn) [Example 318, ent-N-(2-amino-2-methylpentyl)-8-[(2,6-difluorobenzyl)oxy]-2-methylimidazo[1,2-a]pyridine-3-carboxamide] was 0.30 µM; that for `COC(=O)[C@@H](N)CNC(=O)c1c(C)nc2c(OCc3c(F)cccc3F)cc(C)cn12` [Example 319, Methyl 3-[({8-[(2,6-difluorobenzyl)oxy]-2,6-dimethylimidazo[1,2-a]pyridin-3-yl}carbonyl)amino]-L-alaninate] was 0.30 µM; that for `CCCC(C)(N)CNC(=O)c1c(C2CC2)nc2c(OCc3c(F)cccc3F)cc(C)cn12` (stereo not drawn) [Example 322, ent-N-(2-amino-2-methylpentyl)-2-cyclopropyl-8-[(2,6-difluorobenzyl)oxy]-6-methylimidazo[1,2-a]pyridine-3-carboxamide] was 0.30 µM.
With `CCCC(C)(N)CNC(=O)c1c(C)nc2c(OCc3c(F)cccc3F)cc(CC)cn12` (stereo not drawn) [Example 323, ent-N-(2-amino-2-methylpentyl)-8-[(2,6-difluorobenzyl)oxy]-6-ethyl-2-methylimidazo[1,2-a]pyridine-3-carboxamide], the MEC was found to be 0.30 µM.
The value for `Cc1cc(OCc2c(F)cccc2F)c2nc(C)c(C(=O)N[C@@H]3CC[C@](C)(N)C3(C)C)n2c1` [Example 324, N-[(1R,3S)-3-amino-2,2,3-trimethylcyclopentyl]-8-[(2,6-difluorobenzyl)oxy]-2,6-dimethylimidazo[1,2-a]pyridine-3-carboxamide] was 1.00 µM; that for `CCCc1nc2c(OCc3c(F)cccc3F)cc(C)cn2c1C(=O)NCC(C)(N)CC` (stereo not drawn) [Example 327, ent-N-(2-amino-2-methylbutyl)-8-[(2,6-difluorobenzyl)oxy]-6-methyl-2-propylimidazo[1,2-a]pyridine-3-carboxamide] was 1.00 µM.
The value for `CCCC(C)(N)CNC(=O)c1c(CC)nc2c(OCc3c(F)cccc3F)cc(C)cn12` (stereo not drawn) [Example 338, ent-N-(2-amino-2-methylpentyl)-8-[(2,6-difluorobenzyl)oxy]-2-ethyl-6-methylimidazo[1,2-a]pyridine-3-carboxamide] was 0.10 µM.
As for `Cc1cc(OCc2c(F)cccc2F)c2nc(C)c(C(=O)NCC(C)(C)NCCO)n2c1` [Example 349, 8-[(2,6-Difluorobenzyl)oxy]-N-{2-[(2-hydroxyethyl)amino]-2-methylpropyl}-2,6-dimethylimidazo[1,2-a]pyridine-3-carboxamide], the MEC worked out at 1.00 µM.
The value for `COc1cccc(F)c1COc1cc(C)cn2c(C(=O)NCC(C)(C)N)c(C)nc12` [Example 352, N-(2-amino-2-methylpropyl)-8-[(2-fluoro-6-methoxybenzyl)oxy]-2,6-dimethylimidazo[1,2-a]pyridine-3-carboxamide] was 3.00 µM; that for `CCCC(C)(N)CNC(=O)c1c(C)nc2c(OCc3ccccc3Br)cc(C)cn12` (stereo not shown) [Example 353, N-(2-amino-2-methylpentyl)-8-[(2-bromobenzyl)oxy]-2,6-dimethylimidazo[1,2-a]pyridine-3-carboxamide] was 3.00 µM; that for `CCCC(C)(N)CNC(=O)c1cnc2c(OCc3c(F)cccc3F)cccn12` (stereo not drawn) [Example 354, ent-N-(2-amino-2-methylpentyl)-8-[(2,6-difluorobenzyl)oxy]imidazo[1,2-a]pyridine-3-carboxamide] was 3.00 µM.
The result for `C#Cc1cc(OCc2c(F)cccc2F)c2nc(C)c(C(=O)NCC(C)(N)CCC)n2c1` (stereo not drawn) [Example 355, ent-N-(2-amino-2-methylpentyl)-8-[(2,6-difluorobenzyl)oxy]-6-ethynyl-2-methylimidazo[1,2-a]pyridine-3-carboxamide Formate] reads 0.30 µM.
The value for `C#Cc1cc(OCc2c(F)cccc2F)c2nc(C)c(C(=O)NCC(C)(N)CCC)n2c1` (stereo not drawn) [Example 356, ent-N-(2-amino-2-methylpentyl)-8-[(2,6-difluorobenzyl)oxy]-6-ethynyl-2-methylimidazo[1,2-a]pyridine-3-carboxamide] was 0.10 µM; that for `CCCC(C)(N)CNC(=O)c1c(C)nc2c(OCc3c(F)ccc(C4CC4)c3F)cc(C)cn12` (stereo not drawn) [Example 359, ent-N-(2-amino-2-methylpentyl)-8-[(3-cyclopropyl-2,6-difluorobenzyl)oxy]-2,6-dimethylimidazo[1,2-a]pyridine-3-carboxamide] was 3.00 µM.
